Assay [1] deals with T1, recombinant human SIRT1 (Homo sapiens, UniProt Q96EB6).
T1 sequence (Q96EB6 1-747): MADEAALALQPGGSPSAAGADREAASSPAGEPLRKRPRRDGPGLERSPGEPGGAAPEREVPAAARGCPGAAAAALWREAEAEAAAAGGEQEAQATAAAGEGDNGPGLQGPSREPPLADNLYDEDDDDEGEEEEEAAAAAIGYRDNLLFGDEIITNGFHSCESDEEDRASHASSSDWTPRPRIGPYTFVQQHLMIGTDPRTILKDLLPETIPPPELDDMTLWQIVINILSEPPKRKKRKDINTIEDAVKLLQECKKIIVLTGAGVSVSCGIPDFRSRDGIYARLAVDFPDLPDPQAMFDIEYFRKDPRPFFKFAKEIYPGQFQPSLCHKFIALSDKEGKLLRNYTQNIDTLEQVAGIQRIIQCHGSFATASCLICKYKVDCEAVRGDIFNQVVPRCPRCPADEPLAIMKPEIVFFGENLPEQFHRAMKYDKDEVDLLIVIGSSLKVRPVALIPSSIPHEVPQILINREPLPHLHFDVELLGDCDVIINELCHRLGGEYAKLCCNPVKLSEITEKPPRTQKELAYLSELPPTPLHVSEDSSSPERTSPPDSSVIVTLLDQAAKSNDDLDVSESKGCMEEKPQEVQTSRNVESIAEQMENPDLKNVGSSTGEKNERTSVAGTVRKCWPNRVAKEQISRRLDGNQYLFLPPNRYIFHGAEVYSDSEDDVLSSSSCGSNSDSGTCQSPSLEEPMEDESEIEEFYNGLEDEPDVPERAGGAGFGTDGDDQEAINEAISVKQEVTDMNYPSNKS
Kind of assay: SIRT1 fluorescent deacetylation assay (p53-382 acetylated peptide substrate). Format: biochemical.

Assay [2] deals with S. cerevisiae. Put plainly: Yeast replicative lifespan. Format: cell-based. The note with it: 10 μM, wild type. Here is the method:
Average lifespan was determined for wild type untreated (□), quercetin (◯) and piceatannol (●).

Assay [3] relates to W303AR cells (rDNA locus RDN1). Kind of assay: Ribosomal DNA recombination frequency. Format: cell-based, S. cerevisiae.
For assay [4], the system named is rDNA silencing (RDN1::URA3). Kind of assay: Ribosomal DNA silencing assay (URA3 reporter). Format: cell-based, S. cerevisiae. Here is the method: Yeast lifespans were determined as in FIG. 2. […] Frequencies were determined by loss of the ADE2 marker gene from the rDNA locus (RDN1). […] Pre-treated cells (RDN1::URA3) were harvested and spotted as 10-fold serial dilutions on either SC or SC with 5-fluororotic acid (5-FOA). In this assay, increased rDNA silencing results in increased survival on 5-FOA medium.
Ribosomal DNA silencing assays using the URA3 reporters were performed as previously described by Bitterman et al. (J Biol Chem 277, 45099-107 (2002)). Ribosomal DNA recombination frequencies were determined by plating W303AR cells (Sinclair, D. A. and Guarente, L. Cell 91, 1033-42 (1997)) on YPD medium with low adenine/histidine and counting the fraction of half-red sectored colonies using Bio-Rad Quantity One software as described by Anderson et al. (J Biol Chem 277, 18881-90. (2002)). At least 6000 cells were analyzed per experiment and all experiments were performed in triplicate. All strains were pre-grown for 15 hours with the relevant compound prior to plating.

Assay [5] deals with S. cerevisiae. Put plainly: Yeast chronological lifespan. Format: cell-based. The conditions noted are these: 10 μM or 100 μM.
Assay [6] deals with lysine 382 of p53 in U2OS osteosarcoma cells. Put plainly: p53 Ac-K382 Western blot after UV radiation in U2OS cells. Format: cell-based, human. A general note: Immunoblotting shows a protein as a band on a membrane.
Assay [7] relates to lysine 382 of p53 in HEK 293 cells. Put plainly: p53 Ac-K382 Western blot in HEK 293 cells expressing dominant negative SIRT1-H363Y. Format: cell-based, human. The conditions noted are these: low concentrations of resveratrol.
Assay [8] addresses T2, human recombinant SIRT2 (Homo sapiens, UniProt Q8IXJ6).
T2 sequence (Q8IXJ6 1-389): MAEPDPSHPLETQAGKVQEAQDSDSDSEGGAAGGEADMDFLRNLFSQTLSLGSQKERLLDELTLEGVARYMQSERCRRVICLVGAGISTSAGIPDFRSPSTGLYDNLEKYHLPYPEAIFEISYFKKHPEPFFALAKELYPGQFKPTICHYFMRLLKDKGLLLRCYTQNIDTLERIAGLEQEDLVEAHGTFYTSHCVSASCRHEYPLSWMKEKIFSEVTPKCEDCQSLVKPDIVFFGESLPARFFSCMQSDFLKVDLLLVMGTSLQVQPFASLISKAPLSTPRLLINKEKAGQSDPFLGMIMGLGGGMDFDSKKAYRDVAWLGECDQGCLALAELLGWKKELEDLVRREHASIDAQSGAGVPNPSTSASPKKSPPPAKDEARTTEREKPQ
Put plainly: SIRT2 deacetylation assay (Fluor de Lys-SIRT2). Format: biochemical. The note with it: increasing concentrations; 25 μM Fluor de Lys-SIRT2, 25 μM NAD+. The text has this: Yeast Sir2 and human SIRT1 are very homologous and differ from human SIRT2 by the addition of an N-terminal domain that is absent in SIRT2. […] Thus, based on the difference in structure of SIRT1 and SIRT2, i.e., the absence of an N-terminal domain, it is believed that the N-terminal domain of SIRT1 and Sir2 is necessary for activation by the compounds described herein. In particular, it is likely that the activator compounds described herein interact with the N-terminal portion of sirtuins. The N-terminal portion of SIRT1 that is necessary for the action of the compounds is from about amino acid 1 to about amino acid 176, and that of Sir2 is from about amino acid 1 to about amino acid 175.

In assay [9] the test system is C. elegans (strain N2). Kind of assay: C. elegans lifespan. The conditions noted are these: 100 μM, 50 worms strain N2 (control 5 alive). Format: in vivo. Here is the method: Thus, the presence of resveratrol in the growth media of C. elegans extends their lifespan.
The effect of some of these compounds on lifespan was determined in yeast, C. elegans and D. melanogaster, as described above.

Assay [10] has as its system S. cerevisiae. Put plainly: Yeast replicative lifespan. Format: cell-based.
Setting [11] is: 25 μM NAD+, 25 μM p53-382 acetylated peptide.

Results on one molecule are retold here after patent US20060084135A1, “Compositions for manipulating the lifespan and stress response of cells and organisms” (priority 2003, published 2006).

As to `Oc1ccc(/C=C/c2cc(O)cc(O)c2)cc1` [Resveratrol, 3,5,4′-Trihydroxy-trans-stilbene], in [1] (5 μM resveratrol in the presence of 50 μM nicotinamide), the “Apparent Km for NAD+ and acetylated substrate” value is listed as “raised”. Further, in [1] (setting [11]), the “Concentration at which the activating effect doubled the rate” value is around 11 µM and the “Concentration at which the activating effect was essentially saturated” value was around 100 µM. The “Effect on the two Vmax determinations” value in assay [1] (100 μM resveratrol) is listed as “no significant effect”. For the same molecule, the “Lowering of Km for NAD+” value in assay [1] (100 μM resveratrol, 1 mM p53-382 acetylated peptide) is “over 5 fold”. In addition, in assay [1] (100 μM resveratrol, 3 mM NAD+), the “Decrease of acetylated peptide Km” value worked out at 35 fold. In [1] (20 and 100 μM resveratrol in the presence of 50 μM nicotinamide), the “Km for both NAD+ and acetylated peptide” value was “lowers”. Further, the “Vmax, NAD+ varied” value in assay [1] (+100 μM resveratrol, 1 mM p53-382 acetylated peptide (control 1863)) is on record as 1749 AFU/min. The “Vmax, p53-382 acetylated peptide varied” value in assay [1] (+100 μM resveratrol, 3 mM NAD+ (control 1107)) came to 926 AFU/min. Further, in assay [2], the “Effect on maximum lifespan” value is “significantly increased” and the “Increase of average lifespan” value is given as 70%. Besides, the “rDNA recombination in a sir2 strain” value in [3] (sir2 strain) is “does not suppress”. Also, in assay [3] (with the Sir2 inhibitor nicotinamide), the “rDNA recombination in the presence of nicotinamide” value is “decreased”. Also, the “Effect on rDNA silencing” value in assay [4] is “only minor effects”. In addition, the “Effect on chronological lifespan” value in assay [5] was “failed to extend”. The “Level of Ac-K382 of p53 compared to untreated cells” value in assay [6] (0.5 μM resveratrol, 4 hours pre-treatment, UV radiation) is “marked decrease”. The “Level of Ac-K382 of p53” value in assay [6] (higher concentrations of resveratrol (>50 μM)) is recorded as “reversed”. Also, the “Ability to promote deacetylation of p53 in cells expressing dominant-negative SIRT1 (H363Y)” value in [7] is reported as “diminished”. In addition, the “Effect on SIRT2 activity” value in assay [8] is listed as “decrease”. Also, the “Worms alive on day 17” value in assay [9] came out at 17 worms. In addition, the “Extension of the lifespan of a pnc1 null mutant” value in [10] (pnc1 null mutant) is reported as “nearly as well as it did wild type cells”. In addition, in assay [10] (resveratrol 100 μM, 500 μM), the “Lifespan benefit of concentrations higher than 10 μM” value is on record as “no added lifespan benefit”. In addition, the “Effect on the lifespan of a sir2 null mutant” value in [10] (sir2 null mutant) was “no effect”.
